# According to US4820694A, “Modifications of 3-O-demethylmycinose in macrocin and lactenocin” (priority 1986, dated 1989):
# Where two headings read alike, the source gives them in different places.
# Columns and labels:
# [1] = test system: Streptococcus pyogenes C203; experiment: protection of mice experimentally infected with S. pyogenes C203; type: in vivo; details: C203, sc
# How it was run: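 Activity is given as ED50, the mg/kg dose (×2) protecting half of the mice infected with S. pyogenes C203. Compound was dosed 1 and 4 h after infection.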
# [2] = test system: Staphylococcus epidermidis EPI1; experiment: standard agar-dilution MIC assay; type: cell-based
# Method: (§1) The MIC's in Table III were determined by standard agar-dilution assays. The MIC's in Table IV were obtained using conventional brothdilution microtiter tests.
# [3] = test system: Haemophilus influenzae 76; experiment: standard agar-dilution MIC assay; type: cell-based
# Method: as §1
# [4] = test system: Klebsiella pneumoniae X68; experiment: standard agar-dilution MIC assay; type: cell-based
# Method: as §1
# [5] = test system: Haemophilus influenzae C.L.; experiment: standard agar-dilution MIC assay; type: cell-based
# Method: as §1
# Escherichia coli EC14 = experiment: standard agar-dilution MIC assay; type: cell-based
# Method: as §1
# [6] = test system: Streptococcus Group D X66; experiment: standard agar-dilution MIC assay; type: cell-based
# Method: as §1
# [7] = test system: Staphylococcus epidermidis EP12; experiment: standard agar-dilution MIC assay; type: cell-based
# Method: as §1
# [8] = test system: Staphylococcus aureus X400; experiment: standard agar-dilution MIC assay; type: cell-based
# Method: as §1
# [9] = test system: Staphylococcus aureus X1.1; experiment: standard agar-dilution MIC assay; type: cell-based
# Method: as §1
# [10] = test system: Staphylococcus aureus V41; experiment: standard agar-dilution MIC assay; type: cell-based
# Method: as §1
# [11] = test system: Pseudomonas aeruginosa X239; experiment: standard agar-dilution MIC assay; type: cell-based
# Method: as §1
# [12] = test system: Streptococcus pyogenes C203; experiment: standard agar-dilution MIC assay; type: cell-based
# Method: as §1
# [13] = test system: Streptococcus Group D 9960; experiment: standard agar-dilution MIC assay; type: cell-based
# Method: as §1
# [14] = test system: Streptococcus pneumoniae Park I; experiment: microbe, parasite or virus in culture; type: cell-based
# Method: as §1
# [15] = test system: Staphylococcus aureus S13E; experiment: microbe, parasite or virus in culture; type: cell-based
# Method: as §1
# [16] = test system: Pasteurella multocida 22A; experiment: broth-dilution microtiter MIC test; type: cell-based
# Method: as §1
# [17] = test system: Pasteurella multocida 60A; experiment: broth-dilution microtiter MIC test; type: cell-based
# Method: as §1
# [18] = test system: Pasteurella hemolytica 23C; experiment: broth-dilution microtiter MIC test; type: cell-based
# Method: as §1
# [19] = test system: Mycoplasma gallisepticum 15E; experiment: broth-dilution microtiter MIC test; type: cell-based
# Method: as §1
# Mycoplasma synoviae 40A = experiment: broth-dilution microtiter MIC test; type: cell-based
# Method: as §1
# [20] = test system: Staphylococcus aureus 19C; experiment: broth-dilution microtiter MIC test; type: cell-based
# Method: as §1
# [21] = test system: Bordetella bronchiseptica; experiment: broth-dilution microtiter MIC test; type: cell-based
# Method: as §1
# Streptococcus sp. 19F = experiment: broth-dilution microtiter MIC test; type: cell-based
# Method: as §1
# [22] = test system: Pasteurella multocida 68C; experiment: broth-dilution microtiter MIC test; type: cell-based
# Method: as §1
# [23] = test system: Mycoplasma gallisepticum 36H; experiment: broth-dilution microtiter MIC test; type: cell-based
# Method: as §1
# [24] = test system: Pasteurella multocida 40G; experiment: broth-dilution microtiter MIC test; type: cell-based
# Method: as §1
# Mycoplasma hyorhinis 29E = experiment: broth-dilution microtiter MIC test; type: cell-based
# Method: as §1
# [25] = test system: Mycoplasma gallisepticum 29C; experiment: broth-dilution microtiter MIC test; type: cell-based
# Method: as §1
# [26] = test system: Pasteurella hemolytica 41D; experiment: broth-dilution microtiter MIC test; type: cell-based
# Method: as §1
# [27] = test system: Pasteurella multocida 17E; experiment: broth-dilution microtiter MIC test; type: cell-based
# Method: as §1
# [28] = test system: Pasteurella hemolytica 22C; experiment: broth-dilution microtiter MIC test; type: cell-based
# Method: as §1
# [29] = test system: Staphylococcus epidermidis 222; experiment: standard agar-dilution MIC assay; type: cell-based
# Method: as §1
# [30] = test system: Mycoplasma hyopneumoniae S5972; experiment: broth-dilution microtiter MIC test; type: cell-based; details: broth-dilution microtiter
# Method: as §1
# [31] = test system: Streptococcus Group D 2041; experiment: standard agar-dilution MIC assay; type: cell-based; details: GROUPD2041; agar-dilution; read-out: MIC
# Method: as §1
# [32] = Staphylococcus epidermidis, EPI1
structure (smiles),measurement,setting,value
"CCC1OC(=O)CC(O)C(C)C(OC2OC(C)C(OC3CC(C)(O)C(O)C(C)O3)C(N(C)C)C2OC(C)=O)C(CC=O)CC(C)C(=O)C=CC(C)=CC1COC1OC(C)C(OC(C)=O)C(OC(=O)Cc2ccccc2)C1OC (stereo not drawn) [Compound 17, 2',4'""-Di-O-acetyl-3'""-O-phenylacetylmacrocin]",ED50,[1],> 10 mg/kg
same,MIC,[2]; [32],4 µg/mL
same,MIC,"[3]; Haemophilus influenzae, 76",> 128 µg/mL
same,MIC,"[4]; Klebsiella pneumoniae, X68",> 128 µg/mL
same,MIC,[5]; Haemophilus influenzae,> 128 µg/mL
same,MIC,Escherichia coli EC14,> 128 µg/mL
same,MIC,[6]; read-out: MIC,2 µg/mL
same,MIC,[7],2 µg/mL
same,MIC,"[8]; Staphylococcus aureus, X400",4 µg/mL
same,MIC,"[9]; Staphylococcus aureus, X1.1",2 µg/mL
same,MIC,"[10]; Staphylococcus aureus, V41",2 µg/mL
same,MIC,"[11]; Pseudomonas aeruginosa, X239",> 128 µg/mL
same,MIC,"[12]; Streptococcus pyogenes, C203",1 µg/mL
same,MIC,"[13]; GROUPD9960, read-out: MIC",2 µg/mL
same,MIC,[14]; Streptococcus pneumoniae,1 µg/mL
same,MIC,"[15]; Staphylococcus aureus, S13E",4 µg/mL
same,MIC,"[16]; Pasteurella multocida, 22A",> 50 µg/mL
same,MIC,"[17]; Pasteurella multocida, 60A",> 50 µg/mL
same,MIC,"[18]; Pasteurella, 23C",> 50 µg/mL
same,MIC,"[19]; Mycoplasmoides gallisepticum, 15E",12.5 µg/mL
same,MIC,"Mycoplasma synoviae 40A; Mycoplasmopsis synoviae, 40A",1.56 µg/mL
same,MIC,"[20]; Staphylococcus aureus, 19C",3.12 µg/mL
same,MIC,[21]; Bordetella bronchiseptica,> 50 µg/mL
same,MIC,"Streptococcus sp. 19F; Streptococcus, SP.19F",1.56 µg/mL
same,MIC,"[22]; Pasteurella multocida, 68C",> 50 µg/mL
same,MIC,"[23]; Mycoplasmoides gallisepticum, 36H",12.5 µg/mL
same,MIC,"[24]; Pasteurella multocida, 40G",> 50 µg/mL
same,MIC,"Mycoplasma hyorhinis 29E; Mycoplasma, 29E",3.12 µg/mL
same,MIC,"[25]; Mycoplasmoides gallisepticum, 29C",0.39 µg/mL
same,MIC,"[26]; Pasteurella, 41D",> 50 µg/mL
same,MIC,"[27]; Pasteurella multocida, 17E",> 50 µg/mL
same,MIC,"[28]; Pasteurella, 22C",> 50 µg/mL
"CC[C@H]1OC(=O)C[C@@H](O)[C@H](C)[C@@H](O[C@@H]2O[C@H](C)[C@@H](O)[C@H](N(C)C)[C@H]2O)[C@@H](CC=O)C[C@@H](C)C(=O)/C=C/C(C)=C/[C@@H]1CO[C@@H]1O[C@H](C)[C@@H](OC(=O)COc2ccccc2)[C@@H](O)[C@H]1OC [Compound 34, 4""-O-Phenoxyacetyl-lactenocin]",MIC,[2]; agar-dilution,1 µg/mL
same,MIC,"[3]; agar-dilution, Ampicillin-resistant strain",4 µg/mL
same,MIC,[29]; agar-dilution,0.5 µg/mL
same,MIC,[4]; agar-dilution,"-- (Not active at 128 mcg/mL, the highest level tested)"
same,MIC,"[5]; agar-dilution, Ampicillin-sensitive strain",4 µg/mL
same,MIC,[6],1 µg/mL
same,MIC,"[8]; agar-dilution, Methicillin-resistant strain",1 µg/mL
same,MIC,[9]; agar-dilution,1 µg/mL
same,MIC,"[10]; agar-dilution, Penicillin-resistant strain",1 µg/mL
same,MIC,[11]; agar-dilution,"-- (Not active at 128 mcg/mL, the highest level tested)"
same,MIC,[12]; agar-dilution,0.12 µg/mL
same,MIC,[13],1 µg/mL
same,MIC,[14]; agar-dilution,0.12 µg/mL
same,MIC,[15]; agar-dilution,1 µg/mL
same,MIC,[16]; broth-dilution microtiter,12.5 µg/mL
same,MIC,"[17]; broth-dilution microtiter, Avian isolate",12.5 µg/mL
same,MIC,[18]; broth-dilution microtiter,25 µg/mL
same,MIC,[19]; broth-dilution microtiter,25 µg/mL
same,MIC,Mycoplasma synoviae 40A; broth-dilution microtiter,0.097 µg/mL
same,MIC,[20]; broth-dilution microtiter,0.78 µg/mL
same,MIC,[21]; broth-dilution microtiter,50 µg/mL
same,MIC,Streptococcus sp. 19F; broth-dilution microtiter,1.56 µg/mL
same,MIC,[22]; broth-dilution microtiter,12.5 µg/mL
same,MIC,[23]; broth-dilution microtiter,12.5 µg/mL
same,MIC,[24]; broth-dilution microtiter,12.5 µg/mL
same,MIC,Mycoplasma hyorhinis 29E; broth-dilution microtiter,6.25 µg/mL
same,MIC,[25]; broth-dilution microtiter,≤ 0.048 µg/mL
same,MIC,[30],0.097 µg/mL
same,MIC,[26]; broth-dilution microtiter,25 µg/mL
same,MIC,"[27]; broth-dilution microtiter, Bovine isolate",6.25 µg/mL
same,MIC,[28]; broth-dilution microtiter,25 µg/mL
"CCC1OC(=O)CC(O)C(C)C(OC2OC(C)C(O)C(N(C)C)C2O)C(CCOc2ccccc2)CC(C)C(=O)C=CC(C)=CC1COC1OC(C)C(OC(C)=O)C(OC(C)=O)C1OC (stereo not drawn) [Compound 41, 3"",4""-Di-O-acetyl-20-DH-20-O-phenyl-lactenocin]",MIC,[2]; [32],16 µg/mL
same,MIC,[31],128 µg/mL
same,MIC,"[3]; Haemophilus influenzae, 76, agar-dilution, Ampicillin-resistant strain, read-out: MIC",> 128 µg/mL
same,MIC,"[29]; Staphylococcus epidermidis, 222",8 µg/mL
same,MIC,"[4]; Klebsiella pneumoniae, X68, agar-dilution, read-out: MIC",> 128 µg/mL
same,MIC,"[5]; Haemophilus influenzae, agar-dilution, Ampicillin-sensitive strain, read-out: MIC",> 128 µg/mL
same,MIC,"Escherichia coli EC14; agar-dilution, read-out: MIC",> 128 µg/mL
same,MIC,[6]; read-out: MIC,64 µg/mL
same,MIC,"[8]; Staphylococcus aureus, X400",16 µg/mL
same,MIC,"[9]; Staphylococcus aureus, X1.1",16 µg/mL
same,MIC,"[10]; Staphylococcus aureus, V41",16 µg/mL
same,MIC,"[11]; Pseudomonas aeruginosa, X239, agar-dilution, read-out: MIC",> 128 µg/mL
same,MIC,"[12]; Streptococcus pyogenes, C203",16 µg/mL
same,MIC,[14]; Streptococcus pneumoniae,16 µg/mL
same,MIC,"[15]; Staphylococcus aureus, S13E",16 µg/mL
